From patent US10821115B2, “Compounds that inhibit Mcl-1 protein” (priority 2017, dated 2020)
Read-outs that look alike come from different tables or passages of the source.

Tests used:
[1] = system: human multiple myeloma cell line, OPM-2; experiment: Cell viability assay (OPM-2 10 FBS), CellTiter-Glo; type: cell-based
Summary of the method: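 3000 cells/well, RPMI 1640 + 10% FBS; serial compound dilutions, 16 h, 37 °C/5% CO2.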

[2] = target: recombinant human Mcl-1 (residues 171-327) / Bim interaction (Homo sapiens (Human), UniProt Q07820); experiment: biochemical; type: binding; details: read-out: Mcl-1 HTRF IC50
recombinant human Mcl-1 (residues 171-327) / Bim interaction, sequence (Q07820 171-327): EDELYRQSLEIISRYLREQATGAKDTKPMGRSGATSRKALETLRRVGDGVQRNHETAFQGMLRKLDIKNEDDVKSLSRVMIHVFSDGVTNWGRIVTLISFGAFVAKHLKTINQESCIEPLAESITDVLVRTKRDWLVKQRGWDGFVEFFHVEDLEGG

[3] = Homo sapiens, OPM-2, 16 h, read-out: OPM-2 10% FBS IC50 IP, OPM-2 cells, 10% FBS, 16 h, CellTiter-Glo
[4] = TR-FRET, Mcl-1(171-327) / biotin-Bim (51-76)
[5] = read-out: OPM-2 10% FBS IC50 IP, OPM-2 cells, 10% FBS, 16 h, CellTiter-Glo
[6] = Homo sapiens, OPM-2, 16 h, read-out: OPM-2 10% FBS IC50 IP, OPM-2 cells, 10% FBS, 16 h incubation
[7] = 0.1 nM Mcl-1(171-327), 0.05 nM biotin-Bim (51-76)

Row | SMILES | IC50 [1, 3] [nM] | IC50 [2, 4] [nM] | IC50 [1, 5] [nM] | IC50 [1, 6] [nM] | IC50 [2, 7] [nM]
1 | CO[C@@]1(Cc2nc(CO)co2)/C=C/C[C@H](C)[C@@H](C)S(=O)(=O)NC(=O)c2ccc3c(c2)N(C[C@@H]2CC[C@H]21)C[C@@]1(CCCc2cc(Cl)ccc21)CO3 [Example 100570, (1S,3′R,6′R,7′S,8′E,11′S,12′R)-6-chloro-7′-((4-(hydroxymethyl)-1,3-oxazol-2-yl)methyl)-7′-methoxy-11′,12′-dimethyl-3,4-dihydro-2H,15′H-spiro[naphthalene-1,22′-[20]oxa[13]thia[1,14]diazatetracyclo [14.7.2.0~3,6~.0~19,24~]pentacosa[8,16,18,24]tetraen]-15′-one 13′,13′-dioxide] | 5050 | 3.38 | – | – | –
2 | C[C@@H]1[C@@H](C)C/C=C/[C@@](O)(C#CCO)[C@@H]2CC[C@H]2CN2C[C@@]3(CCCc4cc(Cl)ccc43)COc3ccc(cc32)C(=O)NS1(=O)=O [Example 100394, (1S,3′R,6′R,7′S,8′E,11′S,12′R)-6-chloro-7′-hydroxy-7′-(3-hydroxy-1-propyn-1-yl)-11′,12′-dimethyl-3,4-dihydro-2H,15′H-spiro[naphthalene-1,22′-[20]oxa[13]thia[1,14]diazatetracyclo [14.7.2.0~3,6~.0~19,24~]pentacosa[8,16,18,24]tetraen]-15′-one 13′,13′-dioxide] | – | 0.242 | 622 | – | –
3 | C[C@@H]1[C@@H](C)C/C=C/[C@@]2(COCCO2)[C@@H]2CC[C@H]2CN2C[C@@]3(CCCc4cc(Cl)ccc43)COc3ccc(cc32)C(=O)NS1(=O)=O [Example 100233, (2S,3′R,6′R,8′E,11′S,12′R,22′S)-6″-chloro-11′,12′-dimethyl-3″,4″-dihydro-2″H,15′H-dispiro[1,4-dioxane-2,7′-[20]oxa[13]thia[1,14]diazatetracyclo [14.7.2.0~3,6~.0~19,24~]pentacosa[8,16,18,24]tetraene-22′,1″-naphthalen]-15′-one 13′,13′-dioxide] | – | 1.04 | 257 | – | –
4 | CO[C@]1(CCOS(C)(=O)=O)/C=C/C[C@H](C)[C@@H](C)S(=O)(=O)NC(=O)c2ccc3c(c2)N(C[C@@H]2CC[C@H]21)C[C@@]1(CCCc2cc(Cl)ccc21)CO3 [Example 100351, 2-((1S,3′R,6′R,7′R,8′E,11′S,12′R)-6-chloro-7′-methoxy-11′,12′-dimethyl-13′,13′-dioxido-15′-oxo-3,4-dihydro-2H-spiro[naphthalene-1,22′-[20]oxa[13]thia[1,14]diazatetracyclo [14.7.2.0~3,6~.0~19,24~]pentacosa[8,16,18,24]tetraen]-7′-yl)ethyl methanesulfonate] | 2020 | 0.115 | – | – | –
5 | CO[C@@]1(Cc2nc(CO)c(C)o2)/C=C/C[C@H](C)[C@@H](C)S(=O)(=O)NC(=O)c2ccc3c(c2)N(C[C@@H]2CC[C@H]21)C[C@@]1(CCCc2cc(Cl)ccc21)CO3 [Example 100584, (1S,3′R,6′R,7′S,8′E,11′S,12′R)-6-chloro-7′-((4-(hydroxymethyl)-5-methyl-1,3-oxazol-2-yl)methyl)-7′-methoxy-11′,12′-dimethyl-3,4-dihydro-2H,15′H-spiro[naphthalene-1,22′-[20]oxa[13]thia[1,14]diazatetracyclo [14.7.2.0~3,6~.0~19,24~]pentacosa[8,16,18,24]tetraen]-15′-one 13′,13′-dioxide] | 349 | 0.139 | – | – | –
6 | COC(=O)CN1CCN(C[C@]2(OC)/C=C/C[C@H](C)[C@@H](C)S(=O)(=O)NC(=O)c3ccc4c(c3)N(C[C@@H]3CC[C@H]32)C[C@@]2(CCCc3cc(Cl)ccc32)CO4)CC1 [Example 269, methyl (4-(((1S,3′R,6′R,7′S,8′E,11′S,12′R)-6-chloro-7′-methoxy-11′,12′-dimethyl-13′,13′-dioxido-15′-oxo-3,4-dihydro-2H-spiro[naphthalene-1,22′-[20]oxa[13]thia[1,14]diazatetracyclo[14.7.2.0-3,6˜.0˜19,24˜]pentacosa[8,16,18,24]tetraen]-7′-yl)methyl)-1-piperazinyl)acetate] | – | – | – | 86 | 0.104
7 | C[C@@H]1[C@@H](C)CCC[C@]2(COC(=O)O2)[C@@H]2CC[C@H]2CN2C[C@@]3(CCCc4cc(Cl)ccc43)COc3ccc(cc32)C(=O)NS1(=O)=O (single isomer, unassigned) [Example 100055] | 4630 | 1.27 | – | – | –
8 | C[C@@H]1[C@@H](C)C/C=C/[C@@](O)(CC2=NC(C)(C)CO2)[C@@H]2CC[C@H]2CN2C[C@@]3(CCCc4cc(Cl)ccc43)COc3ccc(cc32)C(=O)NS1(=O)=O [Example 100346, (1S,3′R,6′R,7′S,8′E,11′S,12′R)-6-chloro-7′-((4,4-dimethyl-4,5-dihydro-1,3-oxazol-2-yl)methyl)-7′-hydroxy-11′,12′-dimethyl-3,4-dihydro-2H,15′H-spiro[naphthalene-1,22′-[20]oxa[13]thia[1,14]diazatetracyclo [14.7.2.0~3,6~.0~19,24~]pentacosa[8,16,18,24]tetraen]-15′-one 13′,13′-dioxide] | 248 | 0.735 | – | – | –
9 | CC#C[C@]1(OC)/C=C/C[C@H](C)[C@@H](C)S(=O)(=O)NC(=O)c2ccc3c(c2)N(C[C@@H]2CC[C@H]21)C[C@@]1(CCCc2cc(Cl)ccc21)CO3 [Example 100501, (1S,3′R,6′R,7′S,8′E,11′S,12′R)-6-chloro-7′-methoxy-11′,12′-dimethyl-7′-(1-propyn-1-yl)-3,4-dihydro-2H,15′H-spiro[naphthalene-1,22′-[20]oxa[13]thia[1,14]diazatetracyclo [14.7.2.0~3,6~.0~19,24~]pentacosa[8,16,18,24]tetraen]-15′-one 13′,13′-dioxide] | 518 | 0.09 | – | – | –
10 | C[C@@H]1[C@@H](C)C/C=C/[C@]2(CCCO2)[C@@H]2CC[C@H]2CN2C[C@@]3(CCCc4cc(Cl)ccc43)COc3ccc(cc32)C(=O)NS1(=O)=O (stereo in doubt) [Example 100132] | 675 | 0.543 | – | – | –
11 | CO[C@@]1(CN2CCN(CCC#N)CC2)/C=C/C[C@H](C)[C@@H](C)S(=O)(=O)NC(=O)c2ccc3c(c2)N(C[C@@H]2CC[C@H]21)C[C@@]1(CCCc2cc(Cl)ccc21)CO3 [Example 318, 3-(4-(((1S,3′R,6′R,7′S,8′E,11′S, 12′R)-6-chloro-7′-methoxy-11′,12′-dimethyl-13′,13′-dioxido-15′-oxo-3,4-dihydro-2H-spiro[naphthalene-1,22′-[20]oxa[13]thia[1,14]diazatetracyclo [14.7.2.0~3,6~.0~19,24~]pentacosa[8,16,18,24]tetraen]-7′-yl)methyl)-1-piperazinyl)propanenitrile] | – | – | – | 77 | 0.138
12 | COC[C@@H]1[C@@H](C)C/C=C/[C@@](CN2CCN3CCOC[C@@H]3C2)(OC)[C@@H]2CC[C@H]2CN2C[C@@]3(CCCc4cc(Cl)ccc43)COc3ccc(cc32)C(=O)NS1(=O)=O [Example 184, (1S,3′R,6′R,7′R,8′E,11′S,12′S)-6-chloro-7′-((9aS)-hexahydropyrazino[2,1-c][1,4]oxazin-8(1H)-ylmethyl)-7′-methoxy-12′-(methoxymethyl)-11′-methyl-3,4-dihydro-2H,15′H-spiro[naphthalene-1,22′-[20]oxa[13]thia[1,14]diazatetracyclo [14.7.2.0~3,6~.0~19,24~]pentacosa[8,16,18,24]tetraen]-15′-one 13′,13′-dioxide] | – | – | – | 17 | 0.068
13 | C[C@@H]1[C@@H](C)CCC[C@](O)(C2CCN(C)CC2)[C@@H]2CC[C@H]2CN2C[C@@]3(CCCc4cc(Cl)ccc43)COc3ccc(cc32)C(=O)NS1(=O)=O [Example 100387, (1S,3′R,6′R,7′S,11′S,12′R)-6-chloro-7′-hydroxy-11′,12′-dimethyl-7′-(1-methyl-4-piperidinyl)-3,4-dihydro-2H,15′H-spiro[naphthalene-1,22′-[20]oxa[13]thia[1,14]diazatetracyclo [14.7.2.0~3,6~.0~19,24~]pentacosa[16,18,24]trien]-15′-one 13′,13′-dioxide] | 3760 | 0.175 | – | – | –
14 | C=CC[C@]1(OC)/C=C/C[C@H](C)[C@@H](C)S(=O)(=O)NC(=O)c2ccc3c(c2)N(C[C@@H]2CC[C@H]21)C[C@@]1(CCCc2cc(Cl)ccc21)CO3 [Example 100397, (1S,3′R,6′R,7′S,8′E,11′S,12′R)-6-chloro-7′-methoxy-11′,12′-dimethyl-7′-(2-propen-1-yl)-3,4-dihydro-2H,15′H-spiro[naphthalene-1,22′-[20]oxa[13]thia[1,14]diazatetracyclo [14.7.2.0~3,6~.0~19,24~]pentacosa[8,16,18,24]tetraen]-15′-one 13′,13′-dioxide] | 404 | 0.198 | – | – | –
15 | C=CCC[C@@]1(O)/C=C/C[C@H](C)[C@@H](C)S(=O)(=O)NC(=O)c2ccc3c(c2)N(C[C@@H]2CC[C@H]21)C[C@@]1(CCCc2cc(Cl)ccc21)CO3 [Example 100158, (1S,3′R,6′R,7′R,8′E,11′S,12′R)-7′-(3-buten-1-yl)-6-chloro-7′-hydroxy-11′,12′-dimethyl-3,4-dihydro-2H,15′H-spiro[naphthalene-1,22′-[20]oxa[13]thia[1,14]diazatetracyclo [14.7.2.0~3,6~.0~19,24~]pentacosa[8,16,18,24]tetraen]-15′-one 13′,13′-dioxide] | – | 0.298 | 260 | – | –
16 | CO[C@@]1(CC(=O)c2ccccn2)/C=C/C[C@H](C)[C@@H](C)S(=O)(=O)NC(=O)c2ccc3c(c2)N(C[C@@H]2CC[C@H]21)C[C@@]1(CCCc2cc(Cl)ccc21)CO3 [Example 100491, (1S,3′R,6′R,7′S,8′E,11′S,12′R)-6-chloro-7′-methoxy-11′,12′-dimethyl-7′-(2-oxo-2-(2-pyridinyl)ethyl)-3,4-dihydro-2H,15′H-spiro[naphthalene-1,22′-[20]oxa[13]thia[1,14]diazatetracyclo [14.7.2.0~3,6~.0~19,24~]pentacosa[8,16,18,24]tetraen]-15′-one 13′,13′-dioxide] | 308 | 0.208 | – | – | –
